The test system of this assay is P. falciparum 3D7 in RBCs, SYBR Green DNA fluorescence. The assay is described as follows: antimalarial activity against intraerythrocytic 3D7 parasites – 3D7 strain, red blood cells, SYBR Green, cherry-picked, dose response (AID 652047).

In the case of `O=S(=O)(c1ccc(Cl)cc1)N1CCC2(CC1)OCCN2S(=O)(=O)c1cccs1`, the AC35 is 24.8 µM.

`NC(=O)N=Nc1c2[nH]c3ccccc3nc-2c2ccccc12`: the AC35 is 10.7 µM.

With `O=C1OCC(CO)(CO)N=C1NNc1ccc(Cl)c(Cl)c1`, the AC35 was 19.1 µM.

`CCc1cc(SC#N)cc(C)c1NC(=O)CCl`: the AC35 is 7.77 µM.

Take `Cc1ccc(Sc2cc(C)nc(-c3ccccn3)n2)cc1`: the AC35 is 3.19 µM.

As for `CC(=O)C1=C(c2ccc(Br)cc2)C(=O)c2ccccc2C1=O`, the AC35 is 0.82 µM.

For `C=CCN(CC=C)C(=S)NC(=O)c1ccc(C)c(Br)c1`, the AC35 was 6.98 µM.

As to `Cc1ccc2c(C)c3ccc4ccccc4c3c[n+]2c1`, the AC35 was 0.0368 µM.

Regarding `Clc1ccccc1C(c1ccccc1)(c1ccccc1)n1ccnc1`, the AC35 is 0.448 µM.

Take `C[n+]1c2cc(N)ccc2cc2ccc(N)cc21`: the AC35 was 0.0327 µM.

As for `CNc1ccc2oc(C[C@H]3O[C@@]4(CC[C@H]3C)O[C@H]([C@H](C)C(=O)c3ccc[nH]3)[C@H](C)C[C@H]4C)nc2c1C(=O)O`, the AC35 is 1.01 µM.

With `NC(=Nc1nc(-c2ccccn2)cc2ccccc12)c1ccccn1`, the AC35 is 0.0527 µM.

For the compound `CCCCOC(=O)/C=C/c1ccc(OC(=O)OC)c(OC(=O)OC)c1`, the AC35 is 14.7 µM.

`Cc1c(Cc2ccccc2)c(NCCN(C)C)n2c(nc3ccccc32)c1C#N`: the AC35 was 7.32 µM.

Consider `COc1ccc(O)c(C(=O)CC(=O)c2ccc(F)cc2)c1`, for which the AC35 was 16.1 µM.

For the compound `O=C(CSc1ccc(-c2ccccn2)nn1)NCc1ccc(F)cc1`, the AC35 was 28.7 µM.

As to `Cc1cc(C(=O)COC(=O)Cc2n[nH]c(=O)c3ccccc23)c(C)n1-c1cccc(C(F)(F)F)c1`, the AC35 is 6.57 µM.

On to `CC(=O)Nc1cccc(NC(=O)CSc2ccc(-c3ccccn3)nn2)c1`, for which the AC35 was 14 µM.

Turning to `Cc1ccc(NC(=S)c2nc3ccccc3[nH]2)c(C)c1`, the AC35 is 5.34 µM.

Regarding `Clc1ccc(C2=NCCN2)cc1`, the AC35 was 5.64 µM.

For the compound `CC(=O)NC(c1cccc([N+](=O)[O-])c1)c1ccc2cccnc2c1O` (stereo not drawn), the AC35 is 2 µM.

On to `O/N=C(\c1ccc(Cl)cc1Cl)c1ncc(C(F)(F)F)cc1Cl`, for which the AC35 was 16.9 µM.

As to `CCCCC(=O)NC(c1ccco1)c1cc(Cl)c2cccnc2c1O` (stereo not drawn), the AC35 is 1.48 µM.

`COc1ccc(C(=O)On2c(-c3ccc(Br)cc3)nc3ccccc3c2=O)cc1`: the AC35 is 5.71 µM.

Take `CCCCNc1c(-c2cccc(-c3ccc(OC)cc3)c2)nc2ccc(C)cn12`: the AC35 is 2 µM.

For `CN(Cc1ccc(Cl)s1)C(=O)CCl`, the AC35 is 1.69 µM.

Consider `O=C(NCC1CC1(Cl)Cl)Nc1ccc(Cl)c(Cl)c1` (stereo not drawn), for which the AC35 is 8.82 µM.

Regarding `Cc1[nH]n(-c2ccccc2)c(=O)c1/C=N/Nc1nncc(-c2ccccc2)n1`, the AC35 was 1.2 µM.

For `Cc1ccc(NC(=O)CN(C)C(=O)c2cccnc2Nc2cccc(C(F)(F)F)c2)cc1`, the AC35 was 7.58 µM.

`Cc1cccc(N2CCN(C(=O)C3COc4ccccc4O3)CC2)c1C` (stereo not drawn): the AC35 is 34.3 µM.

Regarding `Clc1nc(-c2ccccn2)nc2scc(-c3ccccc3)c12`, the AC35 was 2.34 µM.

In the case of `Cc1oc2c(c1C(=O)c1ccccc1)C(=O)C(=O)c1ccccc1-2`, the AC35 is 3.23 µM.

Take `COc1cccc(/C=N/NC(=O)c2nc(-c3ccccc3)cc(-c3ccccc3)n2)c1O`: the AC35 was 6.29 µM.

`CCCCCCn1c(=O)c(C(=O)Nc2ncccc2C)c(O)c2ccccc21`: the AC35 is 2.57 µM.

Take `CC(=O)NC(c1ccc(C)cc1)c1cc([N+](=O)[O-])c2cccnc2c1O` (stereo not drawn): the AC35 is 10.1 µM.

For the compound `S=C(NCc1ccco1)Nc1ccc(Oc2ccc(Cl)cc2)cc1`, the AC35 is 24 µM.

Consider `CC[n+]1c(/C=C/C=C/c2ccc(N(C)C)cc2)sc2ccccc21`, for which the AC35 is 6.28 µM.

Consider `Cc1c(C2(O)CCCCC2)[nH]c2ccc(C(F)(F)F)cc12`, for which the AC35 is 27.4 µM.

Consider `O=C1c2cc(F)ccc2-n2c1nc1ccccc1c2=O`, for which the AC35 was below 0.0235 µM.

Take `Cc1cc(/C=C2\SC(=S)N(C)C2=O)c(C)n1-c1ccc(O)cc1`: the AC35 was 10.8 µM.

Turning to `CCCCNc1c(-c2cccc(Sc3ccc(OC)cc3)c2)nc2ccccn12`, the AC35 was 15.3 µM.

With `Cc1ccc(Cl)cc1NC1=C/C(=N\S(=O)(=O)c2cccs2)c2ccccc2C1=O`, the AC35 was 0.0436 µM.

For `Cc1csc(NC(=O)C(C)Oc2ccc(Cl)cc2C)n1` (stereo not drawn), the AC35 was 38.3 µM.

On to `CCOC(=O)c1ccc(NC(=S)N(Cc2cccnc2)Cc2ccco2)cc1`, for which the AC35 is 21.7 µM.

On to `Cc1ccc(NS(=O)(=O)c2ccc(N3CCN(c4ccc(O)cc4)CC3)c([N+](=O)[O-])c2)c(C)c1`, for which the AC35 is 17.2 µM.

As for `CN(c1ccccc1)c1nc(N2CCCC2)nc(-n2ccnc2)n1`, the AC35 is 9.8 µM.

As to `COc1ccc(O)c(C(=O)CC(=O)c2ccccc2C)c1`, the AC35 was 8.89 µM.

As to `CC1(C(=O)OCC(=O)Nc2ccc3ccccc3c2)CC1(Cl)Cl` (stereo not drawn), the AC35 was 42.6 µM.

For `O=[N+]([O-])c1cccc(C=NNc2ccc3ccccc3n2)c1O`, the AC35 was 4.23 µM.

Take `COc1ccc2oc(=O)c(-c3csc(Nc4cccc(O)c4)n3)cc2c1`: the AC35 was 15.7 µM.

Take `CCC(C)n1ncn(-c2ccc(N3CCN(c4ccc(OCC5COC(Cn6cncn6)(c6ccc(Cl)cc6Cl)O5)cc4)CC3)cc2)c1=O` (stereo not drawn): the AC35 was 4.24 µM.

Consider `Cc1cc(Cl)ccc1C(=O)C1CCCN(C(=O)c2cncs2)C1` (stereo not drawn), for which the AC35 is 26 µM.

`O=c1c2ccccc2c(-c2ccc(O)cc2)nn1-c1cccc(C(F)(F)F)c1`: the AC35 was 5.55 µM.

`CCCCCCC(Cl)(Cn1ccnc1)c1ccccc1` (stereo not drawn): the AC35 is 4.06 µM.

On to `OCCN(CCO)c1cc2c3ccccc3ccc2c2ccccc12`, for which the AC35 is 1.69 µM.

For `Cc1ccc(NC2(c3nnnn3-c3c(C)cccc3C)CCCCC2)cc1`, the AC35 is 15.7 µM.

Consider `Oc1ccc(/C=N/Nc2ccc(C(F)(F)F)cn2)c(O)c1`, for which the AC35 was 5.21 µM.

`CN(C)c1nc(-c2ccccn2)nnc1-c1ccccc1`: the AC35 is 1.13 µM.

In the case of `Cc1cc(C)c(C(=O)CC(=O)c2cccnc2)c(C)c1`, the AC35 is 6.77 µM.

`COc1ccccc1-c1sc2cc3c(cc2c1C#Cc1cncn1C)OCO3`: the AC35 is 2.48 µM.

As for `Cc1cccc(NC(=S)NC(C)CCc2ccccc2)c1` (stereo not drawn), the AC35 was 5.69 µM.

As to `O=c1cc(CSc2ccc(Cl)cc2)nc(-c2ccccn2)[nH]1`, the AC35 is 1.93 µM.

`S=C(Nc1ccc(Oc2ccccc2)cc1)NC1CCCCCC1`: the AC35 was 12.7 µM.

`CC12CC3(C)CC(C)(C1)CC(NC(=O)N1CCCC1)(C2)C3`: the AC35 was 22.2 µM.

Turning to `CN(C)c1nc(SCc2ccc(Cl)cc2)nc2c1CCCC2`, the AC35 is 40.2 µM.

As to `CN(C)c1ccc(C=c2c3cc(O)ccc3n3c2cc(-c2ccccc2)[n+]3C)cc1`, the AC35 was 0.127 µM.

With `Oc1c(I)cc(Cl)c2cccnc12`, the AC35 is 2.33 µM.

For the compound `Oc1ccc(Br)cc1/C=N/Nc1ccccn1`, the AC35 is 2.68 µM.

As to `O=Cc1cc(N=Nc2ccccc2Cl)ccc1O`, the AC35 is 2.77 µM.

Turning to `CCCCCOc1ccc(CSc2n[nH]c(C)n2)cc1`, the AC35 is 18.6 µM.

Take `CC(/C=N/n1c(COc2ccccc2)n[nH]c1=S)=C\c1ccccc1`: the AC35 is 37.3 µM.

In the case of `C=CCNc1nc(-c2ccccn2)nnc1-c1ccccc1`, the AC35 was 1.21 µM.

On to `O=C(COc1ccccc1F)Nc1nc(-c2ccccn2)cs1`, for which the AC35 is 10.5 µM.

With `CCn1c2ccc(C)cc2c2nc3cc(C(=O)O)ccc3nc21`, the AC35 was 42.6 µM.

For the compound `Cc1ccc(Sc2ccc(NC(=O)CCl)cc2)cc1C`, the AC35 was 0.422 µM.

As to `CC(C)N1CCN(c2ccc(OC[C@H]3CO[C@](Cn4cncn4)(c4ccc(Cl)cc4Cl)O3)cc2)CC1`, the AC35 is 5.3 µM.

`O=C(CSc1ccc(-c2ccccn2)nn1)c1ccccc1`: the AC35 is 20 µM.

With `COc1cccc(/C=N/Nc2ncnc3scc(-c4ccccc4)c23)c1O`, the AC35 was 1.91 µM.

As for `Cc1ccccc1C(=O)NNC(=S)NC(=O)c1ccc(Cl)cc1Cl`, the AC35 is 41.1 µM.

Take `Cc1ccccc1Oc1nc(-c2ccccn2)nc2ccccc12`: the AC35 was 2.17 µM.

With `COc1ccc2[nH]c(=O)c(CN(Cc3cccnc3)C(=O)Nc3ccccc3)cc2c1`, the AC35 is 17.5 µM.

Regarding `Nc1cc2nc3ccccc3oc-2cc1=O`, the AC35 is 2.14 µM.

For `O=C(NC(=S)N(CCc1ccccc1)CCc1ccccc1)c1ccco1`, the AC35 was 12 µM.

For `O=C(CN1CC[n+]2c(-c3cccs3)csc21)c1ccc(-c2ccccc2)cc1`, the AC35 was 2.39 µM.

Turning to `COc1ccc(-c2oc3ccccc3c2C#Cc2cncn2C)cc1`, the AC35 was 0.603 µM.

`CCC(NC(=S)NCc1ccc(F)cc1)c1ccc(C(C)C)cc1` (stereo not drawn): the AC35 was 11.8 µM.

In the case of `COc1cc(/C=N/O)cc(Br)c1OCc1cccc(Cl)c1`, the AC35 is 29.6 µM.

Take `CCN(CC)c1ccc(/C=N/NC(=O)c2c(Cl)cnn2C)c(O)c1`: the AC35 is 3.27 µM.

With `O=C(OCC(=O)C12CC3CC(CC(C3)C1)C2)c1ccc(O)cc1`, the AC35 is 44.4 µM.

As to `CC1CCc2c(C(=O)Nc3ccccn3)csc2C1` (stereo not drawn), the AC35 is 28.7 µM.

Take `O=C(Nc1nc(-c2ccccn2)cs1)c1ccc(Br)s1`: the AC35 was 0.663 µM.

For `Cc1ccc2oc(-c3ccccc3)c(C(=O)O)c(=O)c2c1`, the AC35 was 16.2 µM.

On to `COc1ccc(N=N/C(=C\O)C(=O)c2cccs2)cc1`, for which the AC35 was 7.16 µM.

In the case of `Cc1ccsc1/C=C/c1ccc2cccc(O)c2n1`, the AC35 was 14.2 µM.

Turning to `CCOC(=O)c1cnc(-n2nc(C)cc2C)nc1NC1CCCC1`, the AC35 is 2.6 µM.

Consider `Clc1ccc(C(Cn2ccnc2)OCc2c(Cl)cccc2Cl)c(Cl)c1` (stereo not drawn), for which the AC35 was 2.76 µM.

Take `CC(C)N1CCN(c2ccc(OCC3COC(Cn4cncn4)(c4ccc(Cl)cc4Cl)O3)cc2)CC1` (stereo not drawn): the AC35 is 3.77 µM.

With `O=C(COc1ccc([N+](=O)[O-])cc1)Nc1nc(-c2ccccn2)cs1`, the AC35 is 6.63 µM.

As to `COc1cc(NS(=O)(=O)c2ccc(C)cc2)c2ncccc2c1`, the AC35 is 6.47 µM.

`Fc1ccc(CCNC(=S)Nc2ccc(F)c(Cl)c2)cc1`: the AC35 was 15.9 µM.

With `O=C(CC1CC2CCC1C2)Nc1nc(-c2ccccn2)cs1` (stereo not drawn), the AC35 was 2.94 µM.

For the compound `O=[N+]([O-])c1ccc(Sc2cccc[n+]2[O-])c2nonc12`, the AC35 is 0.657 µM.

For the compound `COc1cc2cnc(-c3ccccc3)c(C(=O)c3ccc(F)cc3)c2cc1OC`, the AC35 is 34.4 µM.

The values are drawn from PubChem BioAssay AID652047 (Broad Institute, 2013).
